{"source": "patent US7811609B2", "about": "“Use of metal compounds to treat gastrointestinal infections” (priority 2000, dated 2010)", "key": {"[1]": {"system": "Helicobacter pylori", "settings": "Co 0 mg/l", "procedure": "(§1) Solutions of metal salts were prepared by dilution of the metal salt, optionally together with the ligand, in ultra-high-purity water. The pH values were adjusted to 7 with concentrated sodium hydroxide. The solutions were γ irradiated for 20 to 30 minutes for sterilisation, and then diluted ten fold in the bacterial growth medium to be used.\n(§2) A gradient of concentration was obtained by two fold serial dilutions of the medium. The concentrations of metals were analysed by inductively coupled plasma spectrometry. Each dilution was inoculated with the different bacteria to be tested, by multi-point inoculating on the agar media, or suspending in the broth media.\n(§3) Media were incubated for Helicobacter pylori in a microaerobic atmosphere (gas jar containing a CampyGen® pack, 5% O2-10% CO2-85% N2 by volume) with constant shaking (orbital shaker, 140 rpm) at 37° C. for five days.\n(§4) The presence or absence of bacterial growth was reported within the concentration gradient and the minimum concentration of complex in the medium that inhibits totally the bacterial growth (MIC) was determined. The growth on an agar plate was detected by the presence of colonies, and by turbidity in the broth media. […] Helicobacter pylori growth was also confirmed by biochemical test on the catalase, urease and oxidase activity."}, "[2]": {"system": "H. pylori", "settings": "cited from earlier work"}, "[3]": {"system": "Helicobacter pylori", "assay": "microbe, parasite or virus in culture", "settings": "read-out: MIC of amoxycillin (no cobalt)", "procedure": "as §1, §2, §3, §4"}}, "note": "“And” between values parts separate entries of the source, which are not always exact repeats. Equal values may be shown once. Read-outs that look alike come from different tables or passages of the source.", "data": [{"molecule": "CC1(C)S[C@@H]2[C@H](NC(=O)[C@H](N)c3ccc(O)cc3)C(=O)N2[C@H]1C(=O)O", "note": "[amoxycillin, reference compound]", "values": [{"measurement": "growth in the medium", "setting": "[1]; Ax 0.002 mg/l", "result": "+"}, {"measurement": "growth in the medium", "setting": "[1]; Ax 0.004 mg/l", "result": "+"}, {"measurement": "growth in the medium", "setting": "[1]; Ax 0.008 mg/l", "result": "+"}, {"measurement": "growth in the medium", "setting": "[1]; Ax 0.015 mg/l", "result": "+"}, {"measurement": "growth in the medium", "setting": "[1]; Ax 0.03 mg/l", "result": "+"}, {"measurement": "growth in the medium", "setting": "[1]; Ax 0.06 mg/l", "result": "−"}, {"measurement": "MIC, strains that repeatedly showed higher MIC", "setting": "[2]; H. pylori strains lacking one penicillin-binding protein", "result": "0.25 mg/L and 0.5 mg/L"}, {"measurement": "MIC, usual", "setting": "[2]; H. pylori, usual strains", "result": "≤ 0.03", "unit": "mg/L"}, {"measurement": "MIC", "setting": "[3]", "result": 0.06, "unit": "µg/mL"}]}]}
